In patent publication US20250026769A1, “PAPD5 INHIBITORS AND METHODS OF USE THEREOF” (The Children's Medical Center Corporation, priority 2021, published 2025) one finds minimal effective concentration, ΔTm and IC50 data, which are given here for 20 compounds.

Structures are written as SMILES. Read-outs that look alike come from different tables or passages of the source. A value given as a limit tells only on which side of the number the result lay.

Test [1] has as its system TERC 3′ end processing in DC patient iPSCs. Kind of test: TERC 3′ end processing by RACE in DC patient / PARN-mutant iPSCs. The format is cell-based, human. As to conditions: Homo sapiens, iPSC, read-out: iPSC-based RACE activity. The protocol:
Compound 266A had activity ˜2-logs higher in the in vitro RNA oligoadenylation assay compared to the parental compound cmpd. 1, approximating the activity of RG7834 (FIG. 7). […] 1. Compounds 295A and 296A had activity 2-3 logs higher in DC patient iPSCs, showing TERC maturation at 1 nM, similar to RG7834 (FIG. 6). […] Referring to Table 1D, “+” refers to activity at 1 μM, “++” refers to activity above 1 nM and below 1 μM, and “+++” refers to activity at <1 nM, “ND” refers to not determined.

In the next test the target is T1, rPAPD5 (Homo sapiens, UniProt Q8NDF8).
T1 construct: made in house
T1 sequence (Q8NDF8 68-698 isoform Q8NDF8-5 limits assumed): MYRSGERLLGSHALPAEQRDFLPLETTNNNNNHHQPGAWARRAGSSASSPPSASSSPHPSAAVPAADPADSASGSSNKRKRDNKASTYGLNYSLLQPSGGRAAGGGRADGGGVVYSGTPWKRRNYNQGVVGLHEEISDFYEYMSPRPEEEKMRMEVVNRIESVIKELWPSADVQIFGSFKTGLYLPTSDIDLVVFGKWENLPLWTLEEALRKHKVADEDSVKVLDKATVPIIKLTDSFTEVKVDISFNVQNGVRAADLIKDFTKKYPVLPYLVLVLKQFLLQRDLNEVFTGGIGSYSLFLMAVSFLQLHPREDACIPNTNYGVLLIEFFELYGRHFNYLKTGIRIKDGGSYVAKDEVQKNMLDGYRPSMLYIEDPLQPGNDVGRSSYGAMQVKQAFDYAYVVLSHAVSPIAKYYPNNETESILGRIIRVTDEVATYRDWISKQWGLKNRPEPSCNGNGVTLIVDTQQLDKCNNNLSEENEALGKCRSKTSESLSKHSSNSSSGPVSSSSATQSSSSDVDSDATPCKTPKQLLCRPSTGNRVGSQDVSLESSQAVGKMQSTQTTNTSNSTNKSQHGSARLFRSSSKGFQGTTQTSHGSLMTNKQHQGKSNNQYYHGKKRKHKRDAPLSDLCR
Kind of test: differential scanning fluorimetry (DSF) binding and stabilization of rPAPD5. The conditions noted are these: for ΔTm at 1 µM: read-out: ΔTm at 1 μM; for ΔTm at 100 µM: 100 μM test compound, read-out: ΔTm at 100 μM. In outline:
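Differential scanning fluorimetry was used to measure how test compounds bind and thermally stabilize rPAPD5. The reaction contained SYPRO orange dye diluted 1:5000 in […] of buffer with […], 25 mM Tris-HCl, 5 mM MgCl2 and 50 mM KCl. ΔTm was calculated relative to a DMSO control.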

Test [2] concerns hepatitis B surface antigen (HBSAg) from HepG2.2.15 cells, a hepatitis B virus-expressing cell line. As to the kind of experiment: HBsAg ELISA in supernatant of HepG2.2.15 cells. It counts as cell-based. As to conditions: HepG2.2.15, 96 h. The protocol:
HepG2.2.15 cells, a hepatitis B virus-expressing cell line (Sells, M. A. et al., PNAS, 1987), were plated at 50,000 cells/well in DMEM/F12 media (Gibco) with 10% fetal bovine serum (Omega Scientific) in a 24-well or 96-well plate (Corning), in 2-3 replicates for each test compound/concentration plus controls, and incubated in a humidified 5% CO2 chamber at 37° C. The next day, media was aspirated, cells were washed once with phosphate buffered saline, pH7.4 (Gibco), and 1 mL DMEM/12 media was replaced. Test compounds were added in 3-fold dilutions from up to 100 μM down to 333 pM, with vehicle (dimethylsulfoxide (Sigma)) as a control. After four days of culture in a humidified 5% CO2 chamber at 37° C., plates were spun down in a centrifuge at 300 g for 10 minutes at room temperature. Supernatant from each well was collected and either frozen at −20° C. or used directly for quantitation of hepatitis B surface antigen (HBSAg) in an enzyme-linked immunosorbent assay (ELISA). The supernatant was tested using the HBSAg ELISA kit (Abnova Cat. No KA0286) per the manufacturer's instructions. Results of replicates were averaged and nonlinear curve fitting was used to determine the half maximal inhibitory concentration (IC50) for each test compound.
A general note: In an ELISA, binding on a coated surface is turned into a signal by an enzyme label.

The mark [3] stands for this setting: patient iPSCs, concentration class at which activity is seen.
The mark [4] stands for this setting: 10 μM test compound (Table 2a), read-out: ΔTm at 10 μM.
Setting [5] is: 10 μM test compound, shift vs DMSO control, read-out: ΔTm (Table 2, starred: the compound was tested at 10 μM).

What is called ΔTm is the shift of the melting midpoint relative to a reference. With `O=C(O)c1cc(Cl)ccc1Nc1c(C2=CCOC2)cnc2ccc(Cl)cc12` [Compound 401A, 5-chloro-2-[[6-chloro-3-(2,5-dihydrofuran-3-yl)-4-quinolyl]amino]benzoic acid], the minimal effective concentration in test [1] (setting [3]) is 1 µM. Further, the ΔTm at 1 µM on rPAPD5 (1 μM test compound (Table 2a)) was > 5 °C. The ΔTm at 10 µM at rPAPD5 (setting [4]) was > 5 °C. For the same compound, on rPAPD5 (shift vs DMSO control), the ΔTm at 100 µM was > 5 °C.

With `O=C(O)c1cc(Cl)c(F)cc1Nc1c(S(=O)(=O)N2CCSCC2)cnc2ccc(Cl)cc12` [Compound 425A, 5-chloro-2-[(6-chloro-3-thiomorpholinosulfonyl-4-quinolyl)amino]-4-fluoro-benzoic acid], in test [1] (setting [3]), the minimal effective concentration was 0.001 to 1 µM. Besides, the ΔTm at 1 µM on rPAPD5 (1 μM test compound (Table 2a)) was > 5 °C. Moreover, the ΔTm at 10 µM at rPAPD5 (setting [4]) is > 5 °C. Further, the ΔTm at 100 µM at rPAPD5 (shift vs DMSO control) was > 5 °C.

For orientation: IC50 means the concentration that gives 50% inhibition. Regarding `O=C(O)c1ccccc1Nc1c(S(=O)(=O)N2CCOCC2)cnc2ccc(F)cc12` [Compound 233A, 2-[(6-fluoro-3-morpholinosulfonyl-4-quinolyl)amino]benzoic acid], on rPAPD5 (shift vs DMSO control), the ΔTm at 100 µM is > 5 °C. The compound also showed an IC50 in test [2] of 29100 nM.

With `COc1ccc(Nc2c(S(=O)(=O)N3CCOCC3)cnc3ccc(Cl)cc23)c(C(=O)O)c1` [Compound 270A, 2-[(6-chloro-3-morpholinosulfonyl-4-quinolyl)amino]-5-methoxy-benzoic acid], on rPAPD5 (shift vs DMSO control), the ΔTm at 100 µM is > 5 °C. Besides, half-maximal inhibition in test [2] (IC50) was put at 4980 nM.

`Cc1ccc(Nc2c(-c3ncco3)cnc3ccc(Cl)cc23)c(C(=O)O)c1` [Compound 301A, 2-[(6-chloro-3-oxazol-2-yl-4-quinolyl)amino]-5-methyl-benzoic acid]: the ΔTm at 100 µM on rPAPD5 (shift vs DMSO control) was > 5 °C. In test [2], the IC50 worked out at 942 nM.

As for `O=C(O)c1cc(Cl)ccc1Nc1c(S(=O)(=O)N2CCSCC2)cnc2cc(F)c(Cl)cc12` [Compound 415A, 5-chloro-2-[(6-chloro-7-fluoro-3-thiomorpholinosulfonyl-4-quinolyl)amino]benzoic acid], the minimal effective concentration in test [1] (setting [3]) was 1 µM. In addition, the ΔTm at 1 µM on rPAPD5 (1 μM test compound (Table 2a)) was > 5 °C. Moreover, the ΔTm at 10 µM on rPAPD5 (setting [4]) is > 5 °C. Moreover, the ΔTm at 100 µM on rPAPD5 (shift vs DMSO control) is > 5 °C.

Take `O=C(O)c1cc(Cl)cc(F)c1Nc1c(S(=O)(=O)N2CCSCC2)cnc2ccc(Cl)cc12` [Compound 427A, 5-chloro-2-[(6-chloro-3-thiomorpholinosulfonyl-4-quinolyl)amino]-3-fluoro-benzoic acid]: the minimal effective concentration in test [1] (setting [3]) was 0.001 to 1 µM. On rPAPD5 (1 μM test compound (Table 2a)), the thermal shift (ΔTm) at 1 µM is > 5 °C. In addition, on rPAPD5 (setting [4]), the ΔTm at 10 µM was > 5 °C. The shift in melting temperature (ΔTm) at 100 µM at rPAPD5 (shift vs DMSO control) is > 5 °C.

For the compound `Cc1cc(Nc2c(S(=O)(=O)N3CCSCC3)cnc3ccc(Cl)cc23)c(C(=O)O)cc1Cl` [Compound 426A, 5-chloro-2-[(6-chloro-3-thiomorpholinosulfonyl-4-quinolyl)amino]-4-methyl-benzoic acid], the minimal effective concentration in test [1] (setting [3]) turned out to be 1 µM. The ΔTm at 1 µM on rPAPD5 (1 μM test compound (Table 2a)) was in the range of 1 to 5 °C. Further, the ΔTm at 10 µM at rPAPD5 (setting [4]) and at rPAPD5 (setting [5]) was > 5 °C each time.

Consider `O=C(O)c1ccccc1Nc1c(C2=CCC(F)(F)CC2)cnc2ccc(Cl)cc12` [Compound 205A-INT, 2-[[6-chloro-3-(4,4-difluorocyclohexen-1-yl)-4-quinolyl]amino]benzoic acid], for which, on rPAPD5 (shift vs DMSO control), the shift in melting temperature (ΔTm) at 100 µM was > 5 °C. The compound also gave an IC50 in test [2] of 1300 nM.

For the compound `O=C(O)c1cc(Cl)ccc1Nc1c(C2CCNC2)cnc2ccc(Cl)cc12` (centres unmarked) [Compound 357A, 5-chloro-2-((6-chloro-3-(pyrrolidin-3-yl)quinolin-4-yl)amino)benzoic acid], the minimal effective concentration in test [1] (setting [3]) was found to be 1 µM. Also, the ΔTm at 1 µM on rPAPD5 (1 μM test compound (Table 2a)) was > 5 °C. For the same compound, the ΔTm at 10 µM on rPAPD5 (setting [4]) was > 5 °C. The thermal shift (ΔTm) at 100 µM at rPAPD5 (shift vs DMSO control) was > 5 °C.

In the case of `O=C(O)c1ccccc1Nc1c(C2CCSCC2)cnc2ccc(Cl)cc12` [Compound 298A, 2-[(6-chloro-3-tetrahydrothiopyran-4-yl-4-quinolyl)amino]benzoic acid], the ΔTm at 100 µM at rPAPD5 (shift vs DMSO control) was > 5 °C. In test [2], this compound returned an IC50 of 1750 nM.

In the case of `O=C(O)c1cc(Cl)ccc1Nc1c(C(=O)N2CCOCC2)cnc2ccc(Cl)cc12` [Compound 372A, 5-chloro-2-[[6-chloro-3-(morpholine-4-carbonyl)-4-quinolyl]amino]benzoic acid], the minimal effective concentration in test [1] (setting [3]) was 1 µM. For the same compound, on rPAPD5 (1 μM test compound (Table 2a)), the thermal shift (ΔTm) at 1 µM was > 5 °C. For the same compound, on rPAPD5 (setting [4]), the ΔTm at 10 µM is > 5 °C. Further, the ΔTm at 100 µM on rPAPD5 (shift vs DMSO control) is > 5 °C.

Regarding `Cc1ccc(Nc2c(C3CCOCC3)cnc3ccc(Cl)cc23)c(C(=O)O)c1` [Compound 305A, 2-[(6-chloro-3-tetrahydropyran-4-yl-4-quinolyl)amino]-5-methyl-benzoic acid], on rPAPD5 (shift vs DMSO control), the ΔTm at 100 µM was > 5 °C. Further, in test [2], the IC50 was 66 nM.

For the compound `O=C(O)c1cc(Cl)ccc1Nc1c(C2=CCNC2)cnc2ccc(Cl)cc12` [Compound 402A, 5-chloro-2-((6-chloro-3-(2,5-dihydro-1H-pyrrol-3-yl)quinolin-4-yl)amino)benzoic acid], the minimal effective concentration in test [1] (setting [3]) was 1 µM. In addition, the ΔTm at 1 µM on rPAPD5 (1 μM test compound (Table 2a)) was > 5 °C. In addition, at rPAPD5 (setting [4]), the ΔTm at 10 µM is > 5 °C. Besides, the ΔTm at 100 µM at rPAPD5 (shift vs DMSO control) was > 5 °C.

On to `O=C(O)c1cc(Cl)ccc1Nc1c(C2CCC(F)CC2)cnc2ccc(Cl)cc12` (centres unmarked) [Compound 400A, 5-chloro-2-[[6-chloro-3-(4-fluorocyclohexyl)-4-quinolyl]amino]benzoic acid], for which, in test [1], the minimal effective concentration is < 0.001 µM. Further, the ΔTm at 10 µM at rPAPD5 (read-out: ΔTm (Table 2, starred: the compound was tested at 10 μM)) is > 5 °C; on rPAPD5 (read-out: ΔTm at 10 μM), > 5 °C. In addition, the ΔTm at 1 µM at rPAPD5 is > 5 °C.

Regarding `O=C1CC=C(c2cnc3ccc(Cl)cc3c2Nc2ccc(Cl)cc2C(=O)O)CC1` [Compound 403A, 5-chloro-2-[[6-chloro-3-(4-oxocyclohexen-1-yl)-4-quinolyl]amino]benzoic acid], the minimal effective concentration in test [1] (setting [3]) came out at 1 µM. In addition, at rPAPD5 (1 μM test compound (Table 2a)), the ΔTm at 1 µM was > 5 °C. Further, the ΔTm at 10 µM at rPAPD5 (setting [4]) is > 5 °C. Further, the ΔTm at 100 µM at rPAPD5 (shift vs DMSO control) is > 5 °C.

For the compound `O=C(O)c1cc(Cl)ccc1Nc1c(C2=CCNCC2)cnc2ccc(Cl)cc12` [Compound 368A, 5-chloro-2-[[6-chloro-3-(1,2,3,6-tetrahydropyridin-4-yl)-4-quinolyl]amino]benzoic acid], the minimal effective concentration in test [1] (setting [3]) turned out to be 1 µM. Moreover, the ΔTm at 1 µM at rPAPD5 (1 μM test compound (Table 2a)) was > 5 °C. Moreover, the thermal shift (ΔTm) at 10 µM on rPAPD5 (setting [4]) was > 5 °C. Also, the ΔTm at 100 µM at rPAPD5 (shift vs DMSO control) was > 5 °C.

Regarding `O=C(O)c1cc(Cl)ccc1Nc1c(N2CCC(OC(F)(F)F)CC2)cnc2ccc(Cl)cc12` [Compound 394A, 5-chloro-2-[[6-chloro-3-[4-(trifluoromethoxy)-1-piperidyl]-4-quinolyl]amino]benzoic acid], in test [1] (setting [3]), the minimal effective concentration is < 0.001 µM. Besides, the ΔTm at 1 µM at rPAPD5 (1 μM test compound (Table 2a)) is > 5 °C. The thermal shift (ΔTm) at 10 µM at rPAPD5 (setting [4]) and on rPAPD5 (setting [5]) was > 5 °C in each case.

`O=C(O)c1cc(Cl)ccc1Nc1c(N2CCC(Cl)(Cl)CC2)cnc2ccc(Cl)cc12` [Compound 430A, 5-chloro-2-[[6-chloro-3-(4,4-dichloro-1-piperidyl)-4-quinolyl]amino]benzoic acid]: in test [1] (setting [3]), the minimal effective concentration was < 0.001 µM. Also, on rPAPD5 (1 μM test compound (Table 2a)), the ΔTm at 1 µM is > 5 °C. The shift in melting temperature (ΔTm) at 10 µM at rPAPD5 (setting [4]) and at rPAPD5 (setting [5]) was > 5 °C throughout.

With `O=C(O)c1cc(Cl)ccc1Nc1c(N2CCNCC2)cnc2ccc(Cl)cc12` [Compound 362A, 5-chloro-2-[(6-chloro-3-piperazin-1-yl-4-quinolyl)amino]benzoic acid], in test [1] (setting [3]), the minimal effective concentration was determined as 1 µM. Moreover, the ΔTm at 1 µM on rPAPD5 (1 μM test compound (Table 2a)) is > 5 °C. In addition, the shift in melting temperature (ΔTm) at 10 µM on rPAPD5 (setting [4]) is > 5 °C. The shift in melting temperature (ΔTm) at 100 µM on rPAPD5 (shift vs DMSO control) was > 5 °C.
